Reference: patent US20230310481A1 (priority 2020, published 2023)
pEC50: −log10 of the molar value.

Assays:
Type in all cases: cell-based
[1] = Viability evaluation (MTS/PMS) of replicon RNA-transfected Huh7 cells, Example 2; conditions: human, highest tested concentration 50 µM
From the text: Obtained values are expressed as percent inhibition of untreated RNA-transfected control condition.

[2] = tested on: rat HEV replicon LAB350/luc; experiment: Antiviral activity against rat HEV replicon LAB350/luc in Huh7 cells (Gaussia luciferase); conditions: Huh-7, 72 h, 3 days, 50% reduction in Luc signal, two experiments
[3] = tested on: HEV Genotype 3 replicon Kernow-C1 p6/luc; experiment: Antiviral activity against HEV Genotype 3 replicon Kernow-C1 p6/luc in Huh7 cells (Gaussia luciferase); conditions: Huh-7, 96 h, read-out: relative EC50

| Structure (SMILES) | CC50 [1] [µM] | pEC50 [2] | pEC50 [3] |
| --- | --- | --- | --- |
| CCOc1nc(N)nc2c1ncn2[C@@H]1O[C@](F)(COP(=O)(OCOC(=O)OC(C)C)OCOC(=O)OC(C)C)[C@@H](O)[C@@]1(C)F [Compound 3] | > 50 | – | – |
| CCOc1nc(N)nc2c1ncn2[C@@H]1O[C@](F)(COP(=O)(OCOC(=O)OC(C)C)OCOC(=O)OC(C)C)[C@@H](O)[C@@]1(C)O [Compound 6] | > 50 | – | – |
| CCOc1nc(N)nc2c1ncn2[C@@H]1O[C@](F)(COP(=O)(N[C@@H](C)C(=O)OC2CCCCC2)Oc2ccccc2)[C@@H](O)[C@@]1(C)O (stereo partly shown) [Compound 2] | > 50 | – | – |
| CCOc1nc(N)nc2c1ncn2[C@@H]1O[C@]2(F)CO[P@@](=O)(NCC(=O)OC(C)C)O[C@H]2[C@@]1(C)F [Compound 5] | > 50 | 7.34 | 7.66 |
| CC(C)OC(=O)OCOP(=O)(OCOC(=O)OC(C)C)OC[C@@]1(F)O[C@@H](n2ccc(=O)[nH]c2=O)[C@](C)(F)[C@@H]1O [Compound 11] | > 50 | – | – |
| CC(C)OC(=O)[C@H](C)N[P@](=O)(OC[C@@]1(F)O[C@@H](n2ccc(=O)[nH]c2=O)[C@](C)(O)[C@@H]1O)Oc1ccccc1 [Compound 7] | > 50 | – | – |
| CC(C)OC(=O)OCOP(=O)(OCOC(=O)OC(C)C)OC[C@@]1(F)O[C@@H](n2ccc(=O)[nH]c2=O)[C@](C)(O)[C@@H]1O [Compound 9] | > 50 | – | – |
| CCOc1nc(N)nc2c1ncn2[C@@H]1O[C@]2(F)CO[P@@](=O)(N[C@H](C)C(=O)OC(C)C)O[C@H]2[C@@]1(C)F [Compound 8] | > 50 | – | – |
